{
  "source": "patent US11135229B2",
  "about": "“Cat and dog sterilization by estrogenic compounds” (Insigna Inc., priority 2018, dated 2021)",
  "key": {"[1]": {"test_system": "premature male and female rats", "format": "in vivo"}, "[2]": {"conditions": "rat, in vivo, sc", "experimental": "Hormonal measurement. Blood was collected from the tail vein or by cardiac puncture. The blood was centrifuged at 2000×g for 10 minutes; then serum was collected and preserved at −20° C. until further analyses. Serum estradiol concentrations were measured by using ELISA kits (DRG EIA4399) with a reportable range of 1.4-200 μg/ml.\nA silicone capsule containing 17β-estradiol 3-benzoate (EB, Sigma E8515) was used as a device to elevate blood 17β-estradiol (E2) concentration to a supra-physiological level. Once implanted subcutaneously, the silicone capsule with EB (called eSpay) releases EB for an extended period of time. […] Therefore, EB that contained 300 μg of EB (herein EB300) was made by dissolving 300 μg of EB in 5 μl of sesame oil (Sigma S3547), and it was inserted into a silicone tube (Dow Corning 508-005) that was later closed with silicone sealant (Factor II, Inc. Medical Adhesive A-100). The capsule was kept at room temperature until use. The EB300 capsule was approximately 8 mm long and 2.16 mm in diameter. […]\nThe efficacy of the EB300 capsule as a device to elevate E2 levels in its recipient was tested after implanting it on the day of birth (post-natal day 0, PND 0). Serum and hypothalami were collected at PND 1, 2, 3, 4, 7, 10, 21, and 30, and E2 concentrations were measured."}, "[3]": {"conditions": "premature male rats, capsule injected subcutaneously"}},
  "data": [
    {"smiles": "C[C@]12CC[C@@H]3c4ccc(OC(=O)c5ccccc5)cc4CC[C@H]3[C@@H]1CC[C@@H]2O", "note": "[EB, 17β-Estradiol 3-benzoate]", "values": [
      {"measurement": "Female reproductive system", "setting": "[1]; premature female rats, capsule injected", "value": "preventing the females from undergoing menstrual cycling and from producing ova"},
      {"measurement": "Sterility of male rats", "setting": "[1]; [3]", "value": "permanently sterile"},
      {"measurement": "Testicular testosterone and sperm production", "setting": "[1]; [3]", "value": "did not produce testosterone or sperm"},
      {"measurement": "Death or sickness", "setting": "[1]; rat, in vivo", "value": "no subject animal died or exhibited sickness"},
      {"measurement": "Immune system, liver and kidney function examination", "setting": "[1]; rat, in vivo", "value": "no clinical pathology"},
      {"measurement": "Period of sustained, high blood E2 level", "setting": "[2]", "value": "about three weeks"}
    ]}
  ]
}
